In paper PMC9780937 (Molecules, 2022):

Assays:
[1] = target: T1, human MOR (Homo sapiens, UniProt P35372); test: biochemical; type: biochemical
[2] = tested on: mice; parameters: method as in 2 sources, ref 19 (suppl. ref 1) ||| ref 19 = [19]; PMID 29708942; doi:10.1097/j.pain.0000000000001262; 19. Drieu La Rochelle A. Guillemyn K. Dumitrascuta M. Martin C. Utard V. Quillet R. Schneider S. Daubeuf F. Willemse T. Mampuys P. A bifunctional-biased mu-opioid agonist-neuropeptide FF receptor anta; conditions: s.c., cited from earlier work
[3] = tested on: mice; test: Acetic acid-induced writhing assay (visceral pain); type: in vivo, mouse (male CD1); conditions: s.c.
[4] = tested on: KOR; parameters: method as in 2 sources, one per row (each row's own in cited_ref): ref 19 = [19]; PMID 29708942; doi:10.1097/j.pain.0000000000001262; 19. Drieu La Rochelle A. Guillemyn K. Dumitrascuta M. Martin C. Utard V. Quillet R. Schneider S. Daubeuf F. Willemse T. Mampuys P. A bifunctional-biased mu-opioid agonist-neuropeptide FF receptor anta ||| ref suppl. ref 1; conditions: cited from earlier work
[5] = tested on: DOR; parameters: method as in 2 sources, one per row (each row's own in cited_ref): ref 19 = [19]; PMID 29708942; doi:10.1097/j.pain.0000000000001262; 19. Drieu La Rochelle A. Guillemyn K. Dumitrascuta M. Martin C. Utard V. Quillet R. Schneider S. Daubeuf F. Willemse T. Mampuys P. A bifunctional-biased mu-opioid agonist-neuropeptide FF receptor anta ||| ref suppl. ref 1; conditions: cited from earlier work
[6] = tested on: mice; parameters: method as in earlier work; conditions: s.c., 7.4 µmol/kg where stated (mechanical and thermal stimulation), ref 19 (suppl. ref 1); cited from earlier work
[7] = tested on: mice; test: Conditioned place preference (CPP) test, rewarding effects; type: in vivo, mouse (male CD1); conditions: 7.4 µmol/kg s.c. daily for 4 days, vs saline; n = 8 mice per group
[8] = target: T1, human MOR; test: cell-based; type: cell-based
[9] = target: NOP receptor; parameters: method as in suppl. ref 1; conditions: radioligand competitive binding; ref suppl. ref 1; read-out: Binding affinity Ki, NOP receptor; cited from earlier work
[10] = tested on: mice; conditions: chronic s.c., at effective antinociceptive doses (7.4 µmol/kg), ref 19 (suppl. ref 1); cited from earlier work
[11] = tested on: mice; conditions: chronic s.c., at effective antinociceptive doses (7.4 µmol/kg), ref 19 (suppl. ref 1); cited from earlier work; remark: listed apart in the source
[12] = tested on: mice; test: Open-field test, spontaneous locomotor activity; type: in vivo, mouse (male CD1); conditions: 7.4 µmol/kg s.c. daily for 4 days, vs saline; 30 min recording; n = 8 mice per group
[13] = tested on: human MOR; parameters: method as in 2 sources, one per row (each row's own in cited_ref): ref 19 = [19]; PMID 29708942; doi:10.1097/j.pain.0000000000001262; 19. Drieu La Rochelle A. Guillemyn K. Dumitrascuta M. Martin C. Utard V. Quillet R. Schneider S. Daubeuf F. Willemse T. Mampuys P. A bifunctional-biased mu-opioid agonist-neuropeptide FF receptor anta ||| ref 19 (suppl. ref 1); conditions: cited from earlier work
[14] = tested on: DOR; parameters: method as in 2 sources, one per row (each row's own in cited_ref): ref 19 = [19]; PMID 29708942; doi:10.1097/j.pain.0000000000001262; 19. Drieu La Rochelle A. Guillemyn K. Dumitrascuta M. Martin C. Utard V. Quillet R. Schneider S. Daubeuf F. Willemse T. Mampuys P. A bifunctional-biased mu-opioid agonist-neuropeptide FF receptor anta ||| ref suppl. ref 1; conditions: cited from earlier work; remark: listed apart in the source
[15] = tested on: human MOR; test: Comparison of G protein activation ([35S]GTPγS binding) and β-arrestin2 recruitment (PathHunter)
[16] = tested on: NOP receptor; parameters: method as in 2 sources, one per row (each row's own in cited_ref): ref 19 = [19]; PMID 29708942; doi:10.1097/j.pain.0000000000001262; 19. Drieu La Rochelle A. Guillemyn K. Dumitrascuta M. Martin C. Utard V. Quillet R. Schneider S. Daubeuf F. Willemse T. Mampuys P. A bifunctional-biased mu-opioid agonist-neuropeptide FF receptor anta ||| ref suppl. ref 1; conditions: cited from earlier work
[17] = tested on: mice; parameters: method as in earlier work; conditions: s.c., ref 19 (suppl. ref 1); cited from earlier work
[18] = tested on: MOR; parameters: method as in 3 sources, one per row (each row's own in cited_ref): ref 19 = [19]; PMID 29708942; doi:10.1097/j.pain.0000000000001262; 19. Drieu La Rochelle A. Guillemyn K. Dumitrascuta M. Martin C. Utard V. Quillet R. Schneider S. Daubeuf F. Willemse T. Mampuys P. A bifunctional-biased mu-opioid agonist-neuropeptide FF receptor anta ||| ref suppl. ref 1 ||| ref 19 (suppl. ref 1); conditions: cited from earlier work
[19] = tested on: NPFF2R; parameters: method as in suppl. ref 1; conditions: [35S]GTPγS binding assay; ref suppl. ref 1; cited from earlier work
[20] = cAMP accumulation assay, ref suppl. ref 1
[21] = relative to maximal effect of DAMGO (100%), HEK293 cells, ref 19 (suppl. ref 1)

T1 sequence (P35372 whole entry): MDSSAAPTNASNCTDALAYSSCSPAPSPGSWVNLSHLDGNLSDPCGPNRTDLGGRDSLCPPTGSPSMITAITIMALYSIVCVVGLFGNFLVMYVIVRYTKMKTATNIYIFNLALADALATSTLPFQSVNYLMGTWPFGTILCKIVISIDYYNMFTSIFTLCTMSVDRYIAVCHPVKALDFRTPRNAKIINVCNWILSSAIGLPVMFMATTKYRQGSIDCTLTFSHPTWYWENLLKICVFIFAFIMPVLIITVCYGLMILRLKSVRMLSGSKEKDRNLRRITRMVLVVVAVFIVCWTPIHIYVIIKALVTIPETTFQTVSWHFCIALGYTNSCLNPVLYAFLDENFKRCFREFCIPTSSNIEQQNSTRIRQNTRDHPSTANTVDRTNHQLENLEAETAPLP

Cc1cc(O)cc(C)c1C[C@H](N)C(=O)N[C@H](CCCNC(=N)N)C(=O)NC1Cc2ccccc2CN(CCC(=O)NC(CCCN2CCC(Cc3ccccc3)CC2)C(=O)N[C@@H](Cc2ccccc2)C(N)=O)C1=O (stereo partly drawn) [KGFF09, H-Dmt-DArg-Aba-βAla-Bpa-Phe-NH2]
Functional profile at MOR in [35S]GTPγS binding [1]: full agonist with high G protein coupling potency
Potency increase compared to DAMGO, G protein activation [1]: four-fold increase in potency compared to DAMGO
Emax ([1]; read-out: Emax, [35S]GTPγS binding): 92 ± 9%
Antinociception, radiant tail-flick test ([2]; ref 19 (suppl. ref 1)): yes and potent and long-lasting antinociceptive activity and very effective with long-lasting antinociceptive effects
ED90, tail-flick test [2]: 7.4 µmol/kg
Potency vs morphine, tail-flick test [2]: three-fold more potent than morphine
Relation of 7.4 µmol/kg to tail-flick ED50 [2]: three-fold antinociceptive ED50 dose
Antinociceptive ED50, writhing assay ([3]; 30 min after administration, Litchfield and Wilcoxon): 0.079 µmol/kg
Effect in writhing assay ([3]; mice): yes and dose-dependent inhibition of the writhing behavior
Potency vs morphine, writhing assay ([3]; ratio of ED50 (morphine ED50 from ref 24)): 17 fold
Emax, G protein activation, KOR [4, 20]: 15%
EC50 ([4]; cAMP accumulation assay, ref suppl. ref 1, read-out: EC50, G protein activation, KOR): > 10000 nM
Functional profile at KOR [4]: antagonist profile
Emax, G protein activation, DOR [5, 20]: 90%
Functional profile at DOR [5]: agonist activity at the delta opioid receptor (DOR)
Antihyperalgesic effect, CFA-induced hyperalgesia [6]: yes and potent and long-lasting antinociceptive activity and completely reduced pain behavior of mice to mechanical and thermal stimulation and very effective with long-lasting antinociceptive effects
Rewarding effect, CPP [7]: no and no significant CPP response compared to saline-treated animals
β-arrestin2 recruitment [8]: failed to robustly engage β-arrestin2 recruitment
Emax ([8]; read-out: Emax, β-arrestin2 recruitment (PathHunter)): 57 ± 3%
Ki [9]: 209 nM
Antinociceptive/analgesic tolerance [10]: no and reduced side effects and reduced opioid-induced side effects
Withdrawal syndrome [11]: no and reduced side effects and reduced opioid-induced side effects
Spontaneous locomotor activity, distance traveled [12]: no and no impairment in the locomotor activity
EC50 ([13]; HEK293 cells co-expressing cAMP Glosensor-20F and human MOR, ref 19 (suppl. ref 1), read-out: EC50, cAMP accumulation, MOR): 18.2 nM
Functional profile in cAMP accumulation, MOR ([13]; HEK293 cells, human MOR): potent and full MOR agonist
Emax, cAMP accumulation, MOR [13, 21]: 85%
Binding affinity lower at DOR than at MOR ([14]; DOR vs MOR): 77 fold
Ki ([14]; radioligand competitive binding, ref suppl. ref 1, read-out: Binding affinity Ki, DOR): 186 nM
Decrease in potency, β-arrestin2 recruitment vs G protein activation ([15]; PathHunter vs [35S]GTPγS binding, human MOR): 153 fold
Signaling bias at MOR ([15]; [35S]GTPγS binding vs PathHunter β-arrestin2): G protein-biased MOR agonist in vitro
Emax, G protein activation, NOP receptor [16, 20]: 7%
EC50 ([16]; cAMP accumulation assay, ref suppl. ref 1, read-out: EC50, G protein activation, NOP receptor): > 10000 nM
Functional profile at NOP receptor [16]: antagonist profile
Antinociception, warm-water tail-withdrawal test [17]: yes and potent and long-lasting antinociceptive activity and very effective with long-lasting antinociceptive effects
EC50 ([18]; HEK293 cells expressing eYFP-tagged β-arrestin-2, MOR-Rluc8, ref 19 (suppl. ref 1), read-out: EC50, BRET β-arrestin2 recruitment (Table S3)): 56.4 nM
BRET β-arrestin2 recruitment and bias ([18]; HEK293 cells, MOR): reduced efficacy (acting as a partial agonist) in inducing β-arrestin2 recruitment
Signaling bias at MOR in vitro, earlier study [18]: G protein-biased MOR agonist
Emax, BRET β-arrestin2 recruitment (Table S3) [18, 21]: 42%
pA2, NPFF2R [19]: 7.77
